In patent US7049311B1, “Pyrrolbenzodiazepines” (Spirogen Limited, priority 1998, dated 2006):
Where two headings read alike, the source gives them in different places.

How the values were obtained:
[1] = system: human tumour cells cultivated in hollow fibres implanted in mice; experiment: NCI Hollow Fibre Assay; format: in vivo
From the text: The Biological testing Branch of the Developmental Therapeutics Program of the NCI has adopted a preliminary in vivo screening tool for assessing the potential anticancer activity of compounds identified by the large scale in vitro cell screen. For these assays, human tumour cells are cultivated in polyvinylidene (PVDF) hollow fibres, and a sample of each cell line is implanted into each of two physiologic compartments (intraperitoneal and subcutaneaous) in mice. Each test mouse received a total of 6 fibres (3 intraperitoneally and 3 subcutaneously) representing 3 distinct cancer cell lines. These mice are treated with potential antitumour compounds at each of 2 test doses by the intraperitoneal route using a QD×4 treatment schedule. Vehicle controls consist of 6 mice receiving the compound diluent only. The fibre cultures are collected on the day following the last day of treatment. To assess anticancer effects, the viable cell mass is determined for each of the cell lines using a formazyn dye (MTT) conversion assay. From this, the % T/C can be calculated using the average optical density of compound treated samples divided by the average optical; density of the vehicle controls. In addition, the net increase in cell mass can be determined for each sample, as a sample of fibre cultures are assessed for viable cell mass on the day of implantation into mice. Thus, the cytostatic and cytocidal capacities of the test compound can be assessed.
Generally, each compound is tested against a minimum of 12 human cancer cell lines. This represents a total of 4 experiments since each experiment contains 3 cell lines. The data are reported as % T/C for each of the 2 compound doses against each of the cell lines with separate values calculated for the intraperitoneal and subcutaneous samples.
Compounds are selected for further in vivo testing in standard subcutaneous xenograft models on the basis of several hollow fibre assay criteria. These include: (1) a % T/C of 50 or less in 10 of the 48 possible test combinations (12 cell lines×2 sites×2 Compound doses); (2) activity at a distance (intraperitoneal drug/subcutaneous culture) in a minimum of 4 of the 24 possible combinations; and/or (3) a net cell kill of 1 or more of the cell lines in either implant site. To simplify evaluation, a points system has been adopted which allows rapid evaluation of the activity of a given compound. For this, a value of 2 is assigned for each compound dose which results in a 50% or greater reduction in viable cell mass. The intraperitoneal and subcutaneous samples are scored separately so that criteria (1) and (2) can be evaluated. Compounds with a combined IP+SC score of 20, a SC score of 8 or a net cell kill of one or more cell lines are referred for xenograft testing. […] In addition to these criteria, other factors (e.g. unique structure, mechanism of action) may result in referral of a compound for xenograft testing without the compound meeting these criteria.

[2] = system: human ovarian carcinoma cell line A2780; experiment: Cytotoxicity in A2780 (Example 9); format: cell-based
Procedure: Relative to the parental line, the A2780cisR subline is known to have elevated GSH levels, an increased level of repair of DNA-cisplatin adducts, and a decreased ability to uptake cisplatin (M. Smellie, et al., Br. J. Cancer, 1994, 70, 48).
The results, which were obtained by incubating the cells with the compounds for 96 hours at 37° C., and assessing the cell number using Sulforhodamine B, are presented in the table below: […]

HCC-2998 = experiment: NCI in vitro cytotoxicity screen; format: cell-based; details: Homo sapiens, HCC 2998, 48 h, read-out: LC50
How it was run: (§1)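 Human tumour cells were seeded at 5000-40,000 per well and preincubated 24 hours at 37° C. Compounds were added at five 10-fold dilutions (10^−4 to 10^−8 […]) for 48 hours continuous exposure in 5% CO2. Viability was measured by sulphorhodamine B protein staining and optical density, giving LC50 values.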

NCI-H460 = experiment: NCI in vitro cytotoxicity screen; format: cell-based; details: Homo sapiens; NCI-H460 (Lung), 48 hour exposure, SRB assay; read-out: LC50 (the source's name)
How it was run: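 Steps: seed cells (5000-40,000/well), preincubate 24 h, 37° C; add compound at 10^−4, 10^−5, 10^−6, 10^−7, 10^−8 […]; incubate 48 h, 5% CO2, 100% humidity; stain with SRB, read OD; derive LC50.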

SNB-75 = experiment: NCI in vitro cytotoxicity screen; format: cell-based; details: Homo sapiens, SNB-75, 48 h, read-out: LC50
How it was run: as §1

UACC-62 = experiment: NCI in vitro cytotoxicity screen; format: cell-based
How it was run: as §1

MALME-3M = experiment: NCI in vitro cytotoxicity screen; format: cell-based
How it was run: as §1

Structure (SMILES): C=C1C[C@H]2C=Nc3cc(OCCCOc4cc5c(cc4OC)C(=O)N4CC(=C)C[C@H]4C=N5)c(OC)cc3C(=O)N2C1 [UP2001 (80)]
- Total score ([1]; combined IP+SC score): 54
- IP score ([1]; intraperitoneal fibres, 2 points per dose giving 50% or greater reduction in viable cell mass): 40
- SC score ([1]; subcutaneous fibres, 2 points per dose giving 50% or greater reduction in viable cell mass): 14
- fold increase in cytotoxicity compared to DSB-120 ([2]; A2780 cell line): 320 fold
- IC50 ([2]; Homo sapiens, A2780, 96 h, read-out: IC50 A2780): 0.023 nM
- CC50 (HCC-2998): 99 nM
- CC50 (NCI-H460): 2700 nM
- CC50 (SNB-75): 7500 nM
- CC50 (UACC-62; Homo sapiens, UACC-62, 48 h, read-out: LC50, UACC-62 (Melanoma), 48 hour exposure, SRB assay): 70 nM
- CC50 (UACC-62; read-out: LC50, UACC-62 (Melanoma), 48 hour exposure, SRB assay): 77 nM
- CC50 (MALME-3M; Homo sapiens, Malme-3M, 48 h, read-out: LC50, MALME-3M (Melanoma), 48 hour exposure, SRB assay): 80 nM
- CC50 (MALME-3M; read-out: LC50, MALME-3M (Melanoma), 48 hour exposure, SRB assay): 73 nM
